Results taken from ChEMBL document CHEMBL5346934 (J Med Chem, 2023).

Legend:
HEL = assay: Cytotoxicity against human HEL cells assessed as reduction in cell growth; format: functional
Vaccinia virus [1] = assay: Antiviral activity against Vaccinia virus infected in human HEL cells; format: functional, organism-based; settings: Orthopoxvirus vaccinia
Vaccinia virus [2] = assay: Antiviral activity against Vaccinia virus Copenhagen infected in African green monkey Vero cells measured after 4 days by colorimetric assay; format: functional, organism-based; settings: Orthopoxvirus vaccinia, 96 h
Vaccinia virus [3] = assay: Antiviral activity against Vaccinia virus infected in African green monkey Vero cells assessed as reduction virus induced cytopathic effect incubated for 24 hrs by MTT assay; format: functional, organism-based; settings: Orthopoxvirus vaccinia
Vaccinia virus [4] = assay: Antiviral activity against Vaccinia virus infected in African green monkey BSC-1 cells; format: functional, organism-based, Orthopoxvirus vaccinia; settings: Orthopoxvirus vaccinia, BSC-1
Vaccinia virus [5] = assay: Antiviral activity against Vaccinia virus VG9 infected in African green monkey BSC-1 cells; format: functional, organism-based, Orthopoxvirus vaccinia; settings: Orthopoxvirus vaccinia, VG9, BSC-1
Vaccinia virus [6] = assay: Antiviral activity against Vaccinia virus infected in African green monkey CV-1 cells assessed as reduction in virus-induced cytopathic effect incubated for 5 days by colorimetric analysis; format: functional, organism-based; settings: Orthopoxvirus vaccinia, CV-1, 120 h
Cowpox virus [7] = assay: Antiviral activity against Cowpox virus infected in Vero cells measured after 4 days by colorimetric assay; format: functional, organism-based; settings: 96 h
Cowpox virus [8] = assay: Antiviral activity against Cowpox virus Grishak infected in African green monkey Vero cells measured after 4 days by colorimetric assay; format: functional, organism-based; settings: 96 h
Ectromelia virus = assay: Antiviral activity against ectromelia virus K-1 infected in Vero cells measured after 4 days by colorimetric assay; format: functional, organism-based; settings: K-1, Vero, 96 h
Vaccinia virus [9] = assay: Antiviral activity against Vaccinia virus IHD-J infected in BSC40 cells assessed as reduction in plaque formation measured after 72 hrs by crystal violet staining based analysis; format: functional, organism-based; settings: Orthopoxvirus vaccinia, BSC-40, 72 h
Vaccinia virus [10] = assay: Antiviral activity against Vaccinia virus Copenhagen infected in human HFF cells assessed as assessed as reduction in virus-induced cytopathic effect incubated for 7 days by microscopic analysis; format: functional, organism-based; settings: Orthopoxvirus vaccinia, 168 h

For `O=C1N(Nc2ccc(Cl)c(Cl)c2)C(=O)C23C4C=CC5C4C4C(C=CC42)C153`, the CC50 (HEL) was > 100000 nM and the IC50 (Vaccinia virus [1]) was 480 nM.
Compound `CCCCCCCCCCOc1ccc(C(=O)NN2C(=O)C3C4C=CC(C5CC45)C3C2=O)cc1` (stereo not drawn) has an IC50 (Vaccinia virus [2]) of 1.7 µg/mL.
In the case of `Cc1cccc(C)c1NC(=O)C(=O)NN1C(=O)C2C3C=CC(C4CC34)C2C1=O` (stereo not drawn), the IC50 (Vaccinia virus [2]) is reported as 1.28 µg/mL.
`O=C1N(Nc2ccc([N+](=O)[O-])cc2)C(=O)C23C4C=CC5C4C4C(C=CC42)C153` was tested, and the CC50 (HEL) was > 100000 nM and the IC50 (Vaccinia virus [1]) was 3000 nM.
For `O=C1N(Nc2ccc(Cl)cc2)C(=O)C23C4C=CC5C4C4C(C=CC42)C153`, the CC50 (HEL) was > 100000 nM and the IC50 (Vaccinia virus [1]) was 8300 nM.
`O=C(NN1C(=O)C2C3C=CC(C4CC34)C2C1=O)c1ccc(O)c([N+](=O)[O-])c1` (stereo not drawn) showed an IC50 (Vaccinia virus [2]) of 0.38 µg/mL.
Work on `CCCCCCCCCCCCCCCCCCOCCOP1(=O)COCC(Cn2ccc(N)nc2=O)O1` (stereo not drawn) yielded an EC50 (Vaccinia virus [3]) of 1100 nM.
`COc1ccc(/C=C/C(=O)Nc2ccccc2C(=O)O)cc1OC` [TRANILAST] was tested, and the EC50 (Vaccinia virus [4]) was 900 nM and the EC50 (Vaccinia virus [5]) was 800 nM.
For `CC(=O)O[C@H]1C[C@H](O[C@H]2[C@@H](O)C[C@H](O[C@H]3[C@@H](O)C[C@H](O[C@H]4CC[C@@]5(C)[C@H](CC[C@@H]6[C@@H]5C[C@@H](O)[C@]5(C)[C@@H](C7=CC(=O)OC7)CC[C@]65O)C4)O[C@@H]3C)O[C@@H]2C)O[C@H](C)[C@H]1O[C@@H]1O[C@H](CO)[C@@H](O)[C@H](O)[C@H]1O` [LANATOSIDE C], the EC50 (Vaccinia virus [6]) was 500 nM.
`Nc1ccn(C[C@@H]2COP(=O)(O)CO2)c(=O)n1` gave an EC50 (Vaccinia virus [3]) of 50600 nM and an EC50 (Cowpox virus [7]) of 48300 nM.
For `CC1(C)[C@@H]2CC=C(C(=O)NC34CC5CC(CC(C5)C3)C4)[C@H]1C2`, the IC50 (Vaccinia virus [2]) was 2500 nM, the IC50 (Cowpox virus [8]) was 7200 nM and the IC50 (Ectromelia virus) was 1700 nM.
For `CC(=O)C1=C2C=CCCN2C(=O)NC1c1ccccc1Br` (stereo not drawn), the IC50 (Vaccinia virus [3]) was 300 nM.
With `O=C1N(Nc2ccc(Cl)c(C(F)(F)F)c2)C(=O)C23C4C=CC5C4C4C(C=CC42)C153` the CC50 (HEL) was > 100000 nM and the IC50 (Vaccinia virus [1]) was 800 nM.
For `CC1(C)[C@@H]2CC[C@@]1(C)/C(=N/NC(=O)C1CCC(F)(F)CC1)C2`, the IC50 (Vaccinia virus [2]) was 1800 nM, the IC50 (Cowpox virus [8]) was 8300 nM and the IC50 (Ectromelia virus) was 7800 nM.
`O=C1N(Nc2ccc(Br)cc2)C(=O)C23C4C=CC5C4C4C(C=CC42)C153` was tested, and the CC50 (HEL) was > 100000 nM and the IC50 (Vaccinia virus [1]) was 7300 nM.
With `O=C(NN1C(=O)C2C3C=CC(C4CC34)C2C1=O)c1cc(Br)cc(Br)c1O` (stereo not drawn) the IC50 (Vaccinia virus [2]) was 1.05 µg/mL.
`O=C(Nc1cccc(C(F)(F)F)c1)C(=O)NN1C(=O)C2C3C=CC(C4CC34)C2C1=O` (stereo not drawn) gave an IC50 (Vaccinia virus [2]) of 1.3 µg/mL.
For `O=C1N(Nc2ccc(Br)c(Cl)c2)C(=O)C23C4C=CC5C4C4C(C=CC42)C153`, the CC50 (HEL) was > 100000 nM and the IC50 (Vaccinia virus [1]) was 600 nM.
Compound `CCC(=O)N1CC(=O)Nc2ccc(Br)cc2C1c1ccccc1` (stereo not drawn) has an EC50 (Vaccinia virus [9]) of 3000 nM.
For `Cc1ccc(C2Nc3ccccc3C(=O)N2c2ccccc2)s1` (stereo not drawn), the EC50 (Vaccinia virus [9]) was 2200 nM.
`Cc1ccnc(NC(c2ccccc2F)c2ccc3cccnc3c2O)c1` (stereo not drawn) was tested, and the EC50 (Vaccinia virus [10]) was 2900 nM.
`COc1c(C)c2c(c(O)c1C/C=C(\C)CCC(=O)OCCN1CCOCC1)C(=O)OC2` [MYCOPHENOLATE MOFETIL] was tested, and the EC50 (Vaccinia virus [4]) was 200 nM and the EC50 (Vaccinia virus [5]) was 100 nM.
`CC1(C)[C@@H]2CC[C@@]1(C)[C@@H](NC(=O)c1ccc(Cl)cc1)C2` gave an IC50 (Vaccinia virus [2]) of 240 nM, an IC50 (Cowpox virus [8]) of 2400 nM and an IC50 (Ectromelia virus) of 600 nM.
For `Cc1cc(NN2C(=O)C34C5C=CC6C5C5C3C=CC5C64C2=O)ccc1[N+](=O)[O-]`, the CC50 (HEL) was > 100000 nM and the IC50 (Vaccinia virus [1]) was 3000 nM.
`C[C@@H]1O[C@@H](O[C@H]2C[C@@H](O)[C@]3(CO)[C@H]4[C@H](O)C[C@]5(C)[C@@H](C6=CC(=O)OC6)CC[C@]5(O)[C@@H]4CC[C@]3(O)C2)[C@H](O)[C@H](O)[C@H]1O` [OUABAIN] was tested, and the EC50 (Vaccinia virus [6]) was 250 nM.
Compound `O=C(NN1C(=O)C2C3C=CC(C4CC34)C2C1=O)c1cc(Cl)cc(Cl)c1` (stereo not drawn) has an IC50 (Vaccinia virus [2]) of 0.95 µg/mL.
With `Nc1cc(OC[C@H](CO)OCP(=O)(O)O)nc(N)n1` the EC50 (Cowpox virus [7]) was 46200 nM.
Work on `C#C[C@]1(OC(=O)CCCCCC)CC[C@H]2[C@@H]3CCC4=CC(=O)CC[C@@H]4[C@H]3CC[C@@H]21` yielded an EC50 (Vaccinia virus [4]) of 3900 nM and an EC50 (Vaccinia virus [5]) of 2700 nM.
Compound `CC(=O)C1=C2C=CCCN2C(=O)NC1c1cccc(F)c1` (stereo not drawn) has an IC50 (Vaccinia virus [3]) of 100 nM.
In the case of `Oc1ccc(NCc2ccccc2OCc2ccccc2)cc1`, the EC50 (Vaccinia virus [10]) is reported as 7100 nM.
In the case of `Nc1ccn(C[C@@H](CO)OCP(=O)(O)O)c(=O)n1` [CIDOFOVIR ANHYDROUS], the EC50 (Vaccinia virus [3]) is reported as 46200 nM and the EC50 (Cowpox virus [7]) is reported as 44700 nM.
Work on `O=C1c2ccccc2-c2onc3c2C1C(NC1CCCCC1)C=C3NCCO` (stereo not drawn) yielded an EC50 (Vaccinia virus [10]) of 8400 nM.
Work on `CCOc1ccc2c(c1)[C@H]1C=CC[C@H]1[C@H](c1ccccc1Cl)N2` yielded an EC50 (Vaccinia virus [10]) of 13900 nM.
For `O=C1N(Nc2ccc(C(F)(F)F)cc2)C(=O)C23C4C=CC5C4C4C(C=CC42)C153`, the CC50 (HEL) was > 100000 nM and the IC50 (Vaccinia virus [1]) was 1200 nM.
